Measurements published in the supplement of paper PMC4862054.

How the values were obtained:
Assay in all cases: normalised viability (% of control), CellTiter-Blue; higher = more viable cells (about 100 = DMSO control)
Conditions in all cases: incubation time: 72 h
CAL-148 [1] = test system: CAL-148
Description: (§1)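 DSRT, CellTiter-Blue viability, 72 h incubation. Signal is normalised to DMSO and benzethonium chloride controls. Value is the normalised response at dose 8.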

DU-4475 [2] = test system: DU-4475
Description: as §1

CAL-85-1 [3] = test system: CAL-85-1
Description: as §1

CAL-51 [4] = test system: CAL-51
Description: as §1

MDA-MB-453 [5] = test system: MDA-MB-453
Description: as §1

HDQ-P1 [6] = test system: HDQ-P1
Description: as §1

MDA-MB-231 = test system: MDA-MB-231
Procedure, shortened: (§2)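 384-well plates were pre-loaded with compound in 5 µl medium before 20 µl of breast cancer cell suspension was seeded. Following 72 h incubation, 2.5 µl CellTiter-Blue reagent was added for 2 h at 37 °C. Fluorescence was read at 560/590 nm and plates were normalised to vehicle (100) and a positive kill control (0), checked by Z'-factor. Normalised viability is reported at a single listed concentration of the series.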

CAL-148 [7] = test system: CAL-148; remark: listed apart in the source
Procedure, shortened: as §2

MDA-MB-436 = test system: MDA-MB-436
Procedure, shortened: as §2

CAL-120 = test system: CAL-120
Procedure, shortened: as §2

BT-474 = test system: BT-474
Procedure, shortened: as §2

HCC1143 = test system: HCC1143
Procedure, shortened: as §2

MDA-MB-468 = test system: MDA-MB-468
Procedure, shortened: as §2

BT-549 = test system: BT-549
Procedure, shortened: as §2

HCC1599 = test system: HCC1599
Procedure, shortened: as §2

SK-BR-3 = test system: SK-BR-3
Procedure, shortened: as §2

DU-4475 [8] = test system: DU-4475; remark: listed apart in the source
Procedure, shortened: as §2

CAL-85-1 [9] = test system: CAL-85-1; remark: listed apart in the source
Procedure, shortened: as §2

MFM-223 = test system: MFM-223
Procedure, shortened: as §2

CAL-51 [10] = test system: CAL-51; remark: listed apart in the source
Procedure, shortened: as §2

MDA-MB-453 [11] = test system: MDA-MB-453; remark: listed apart in the source
Procedure, shortened: as §2

Hs578T = test system: Hs578T
Procedure, shortened: as §2

HDQ-P1 [12] = test system: HDQ-P1; remark: listed apart in the source
Procedure, shortened: as §2

CAL-148 [13] = test system: CAL-148; remark: listed apart in the source
Description: (§3)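 DSRT, CellTiter-Blue viability, 72 h incubation. Signal is normalised to DMSO and benzethonium chloride controls. Value is the normalised response at dose 6.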

CAL-85-1 [14] = test system: CAL-85-1; remark: listed apart in the source
Description: as §3

MDA-MB-453 [15] = test system: MDA-MB-453; remark: listed apart in the source
Description: as §3

CC[C@@H]1C(=O)N(C)c2cnc(Nc3ccc(C(=O)NC4CCN(C)CC4)cc3OC)nc2N1C1CCCC1 [BI 2536]
Conditions	normalised viability [%]
BT-474, 1 nM	116
BT-474, 100 nM	89.1
BT-474, 1000 nM	100
BT-549, 1 nM	85.2
BT-549, 100 nM	38.6
BT-549, 1000 nM	44.2
CAL-51 [4], 300 nM	10.6
CAL-51 [10], 0.3 nM	99.2
CAL-51 [10], 3 nM	90.5
CAL-51 [10], 10 nM	63.9
CAL-85-1 [3], 300 nM	61.8
CAL-85-1 [9], 0.3 nM	101
CAL-85-1 [9], 3 nM	79.7
CAL-85-1 [9], 10 nM	40.5
CAL-85-1 [14], 30 nM	45.3
CAL-120, 1 nM	97.5
CAL-120, 100 nM	28.6
CAL-120, 1000 nM	30.6
CAL-148 [1], 300 nM	41.5
CAL-148 [7], 0.3 nM	96.9
CAL-148 [7], 3 nM	92.9
CAL-148 [7], 10 nM	26.2
CAL-148 [13], 30 nM	25.5
DU-4475 [2], 300 nM	32.9
DU-4475 [8], 0.3 nM	105
DU-4475 [8], 3 nM	86.5
DU-4475 [8], 10 nM	50.6
HCC1143, 1 nM	109
HCC1143, 100 nM	51.3
HCC1143, 1000 nM	52.4
HCC1599, 1 nM	78.7
HCC1599, 100 nM	81.5
HCC1599, 1000 nM	61.3
HDQ-P1 [6], 300 nM	65.2
HDQ-P1 [12], 0.3 nM	126
HDQ-P1 [12], 3 nM	77
HDQ-P1 [12], 10 nM	74.2
Hs578T, 1 nM	114
Hs578T, 100 nM	29.9
Hs578T, 1000 nM	65.3
MDA-MB-231, 1 nM	103
MDA-MB-231, 100 nM	41.8
MDA-MB-231, 1000 nM	41
MDA-MB-436, 1 nM	95.7
MDA-MB-436, 100 nM	65.3
MDA-MB-436, 1000 nM	78.5
MDA-MB-453 [5], 300 nM	39.5
MDA-MB-453 [11], 0.3 nM	97.8
MDA-MB-453 [11], 3 nM	56.6
MDA-MB-453 [11], 10 nM	32.6
MDA-MB-453 [15], 30 nM	28.4
MDA-MB-468, 1 nM	107
MDA-MB-468, 100 nM	52.2
MDA-MB-468, 1000 nM	55.1
MFM-223, 1 nM	87.2
MFM-223, 100 nM	48.6
MFM-223, 1000 nM	48.5
SK-BR-3, 1 nM	99.7
SK-BR-3, 100 nM	18.4
SK-BR-3, 1000 nM	23.1

CC[C@H](Nc1ncnc2[nH]cnc12)c1nc2cccc(F)c2c(=O)n1-c1ccccc1 [CAL-101]
Conditions	normalised viability [%]
BT-474, 10 nM	108
BT-474, 1000 nM	109
BT-474, 10000 nM	90.9
BT-549, 10 nM	100
BT-549, 1000 nM	96.6
BT-549, 10000 nM	71.8
CAL-51 [4], 3000 nM	89.3
CAL-51 [10], 3 nM	93
CAL-51 [10], 30 nM	92
CAL-51 [10], 100 nM	98
CAL-85-1 [3], 3000 nM	76.8
CAL-85-1 [9], 3 nM	88.6
CAL-85-1 [9], 30 nM	75.9
CAL-85-1 [9], 100 nM	78
CAL-85-1 [14], 300 nM	81.9
CAL-120, 10 nM	95.6
CAL-120, 1000 nM	89.6
CAL-120, 10000 nM	77.8
CAL-148 [1], 3000 nM	83.3
CAL-148 [7], 3 nM	91.9
CAL-148 [7], 30 nM	92.1
CAL-148 [7], 100 nM	88.5
CAL-148 [13], 300 nM	90.4
DU-4475 [2], 3000 nM	104
DU-4475 [8], 3 nM	105
DU-4475 [8], 30 nM	83.2
DU-4475 [8], 100 nM	86.2
HCC1143, 10 nM	99.4
HCC1143, 1000 nM	96.1
HCC1143, 10000 nM	76.2
HCC1599, 10 nM	84.8
HCC1599, 1000 nM	77.9
HCC1599, 10000 nM	49.1
HDQ-P1 [6], 3000 nM	80.7
HDQ-P1 [12], 3 nM	90
HDQ-P1 [12], 30 nM	101
HDQ-P1 [12], 100 nM	102
Hs578T, 10 nM	116
Hs578T, 1000 nM	112
Hs578T, 10000 nM	86.8
MDA-MB-231, 10 nM	89.9
MDA-MB-231, 1000 nM	92.1
MDA-MB-231, 10000 nM	80.5
MDA-MB-436, 10 nM	111
MDA-MB-436, 1000 nM	107
MDA-MB-436, 10000 nM	95.7
MDA-MB-453 [5], 3000 nM	79.5
MDA-MB-453 [11], 3 nM	97.5
MDA-MB-453 [11], 30 nM	91.7
MDA-MB-453 [11], 100 nM	89.8
MDA-MB-453 [15], 300 nM	86
MDA-MB-468, 10 nM	110
MDA-MB-468, 1000 nM	96
MDA-MB-468, 10000 nM	62.6
MFM-223, 10 nM	90.3
MFM-223, 1000 nM	89.9
MFM-223, 10000 nM	79.9
SK-BR-3, 10 nM	101
SK-BR-3, 1000 nM	94.7
SK-BR-3, 10000 nM	59.1
